Legend:
cholesterol = experiment: Antilipemic effect: percent total cholesterol inhibition in plasma of rats given an olive oil-cholesterol mixture; format: in vivo, male Wistar rats; settings: oral 100 mg/kg, plasma 8 hours after dosing, Wistar rat; read-out: Anti-lipemic effect, CS (percent cholesterol inhibition)
How it was run: (§1)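 Male Wistar rats, seven weeks old, 200 to 220 g, 5 per group, dosed orally at 100 or 200 mg/kg in olive oil-cholesterol mixture (15% cholesterol) at 10 ml/kg. Plasma triglycerides measured at 2 hours, total cholesterol at 8 hours, by enzymatic kits; percent inhibition calculated relative to vehicle control and untreated normal groups.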

triglycerides = experiment: Antilipemic effect: percent triglycerides inhibition in plasma of rats given an olive oil-cholesterol mixture; format: in vivo, male Wistar rats; settings: oral 100 mg/kg, plasma 2 hours after dosing, Wistar rat; read-out: Anti-lipemic effect, TG (percent triglycerides inhibition)
How it was run: as §1

Acute toxicity = settings: rat, in vivo, po
Text: Six-week-old male Wistar rats weighing 180 to 200 g are used, 5 rats in each group. Each compound of the invention is suspended in a 30% aqueous solution of polyethylene glycol 6000 and orally given to the rat at the dosage shown in Table 2. The animals are checked for poisoning, body weight and survival to determine the LD50 value.

chymotripsin = chymotripsin (Bos taurus, UniProt P00766); experiment: Chymotripsin inhibiting activity; format: biochemical; settings: 0.5 h; compound 1×10^-4 mole, ATEE substrate, pH 8.0, 37° C.; read-out: Percent chymotripsin inhibition
Procedure: Chymotripsin (0.1 unit) serving as an enzyme solution is added to a specified quantity of buffer solution containing 0.1 mole of trishydrochloric acid (pH 8.0). To the mixture is further added a 50% ethanol solution of the compound of the invention so that the resulting mixture contains the compound in a concentration of 1×10^-4 mole. The mixture is reacted at 37° C. for 20 minutes.
On completion of the reaction, 10 micromoles of N-acetyl-L-thyrosine ethyl ester (ATEE) serving as a substrate is added to the mixture, and the resulting mixture is reacted at 37° C. for 30 minutes.
After the completion of the reaction, the amount of remaining ATEE is determined by the same hydroxamic acid method as above. The percent chymotripsin inhibition is given by [formula] wherein A is the amount of hydrolyzed esters in the reaction system not containing the compound of the invention, and B is the amount of hydrolyzed esters in the reaction system containing the present compound.

esterase = experiment: Esterase inhibiting activity; format: biochemical; settings: rat liver microsome esterase, methyl butyrate substrate, pH 8.0, 37° C., 60 minutes; read-out: IC50 for esterases
Procedure: A 10 micromole quantity of methyl butyrate in a 50% ethanol solution is added as a substrate to a specified amount of buffer solution containing 0.1 mole of trishydrochloric acid (pH 8.0). To the mixture is further added a 50% ethanol solution of the compound of the invention, immediately followed by addition of an esterase solution prepared from a purified microsome fraction of the liver of a rat (adjusted to hydrolyze 9 micromoles of methyl butyrate at 37° C. in one hour) as an enzyme solution. The mixture is reacted at 37° C. for 60 minutes.
After the reaction, alkaline hydroxylamine is added to the mixture to form a hydroxamic acid derivative of methyl butyrate, and a ferric salt is added to the derivative. The resulting red color is colorimetrically determined (at a wavelength of 540 nm) to determine the amount of remaining methyl butyrate. The esterase inhibiting ratios of the present compound at least at three concentrations are plotted as ordinate, and the logarithms of the concentrations as abscissa to obtain a line, which gives the 50% inhibition concentration (IC50).

[1] = reported in the literature; cited from earlier work

SMILES | inhibition in vivo at 100 mg/kg (cholesterol) | inhibition in vivo at 100 mg/kg (triglycerides) | LD50 (Acute toxicity) | inhibition at 100 µM (chymotripsin) | IC50 (esterase) | Side effects [1]
CCCC(CC)C(=O)COS(=O)(=O)c1c(C)cc(C)cc1C (stereo not drawn) [Compound 151] | 77% | 83% | > 3000 mg/kg | 8% | 32000 nM | –
CCC(C)CC(=O)COS(=O)(=O)c1c(C)cc(C)cc1C (stereo not drawn) [Compound 153] | 83% | 82% | > 4000 mg/kg | 9% | 640 nM | –
CCCC(C)CC(=O)COS(=O)(=O)c1c(C)cc(C)cc1C (stereo not drawn) [Compound 158] | 70% | 74% | > 4000 mg/kg | 17% | 400 nM | –
CCCCCC(C)C(=O)COS(=O)(=O)c1c(C)cc(C)cc1C (stereo not drawn) [Compound 162] | 77% | 75% | > 4000 mg/kg | 32% | 2000 nM | –
O=C(O)c1cccnc1 [nicotinic acid] | – | – | – | – | – | pruritus and cutaneous flushing due to vasodilatation, gastrointestinal disorders, abnormalities in liver function and glucose intolerance

Reference: patent US4489091A, “Antilipemic and anti-inflammatory compositions containing sulfonate derivatives” (Taiho Pharmaceutical Company Limited, priority 1980, dated 1984)
